From the supplement of paper PMC6411743 come the findings set out here.

Compound in the test: Nc1ncnc2c1ncn2[C@@H]1O[C@H](COP(=O)(O)OP(=O)(O)OP(=O)(O)O)[C@@H](O)[C@H]1O [adenosine triphosphate]
Briefly: pEC50 of ATP-induced change in protein thermal stability (2D-TPP). The method, boiled down:
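Soluble protein was quantified by TMT LC-MS/MS after ultracentrifugation of Jurkat crude lysate that had been dosed at five concentrations including vehicle (10 min, room temperature), heated at 12 temperatures of 42–63.9 °C for 3 min, and incubated with NP40 and benzonase at 4 °C for 60 min. Fold changes against vehicle at each temperature were median-normalised, and pEC50 was derived from per-replicate dose-response fits over adjacent temperature pairs. Hits were called with permutation-based false discovery rate control in three independent experiments.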

Some results are limits rather than exact numbers.
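Also: lysate dosed with Na-ATP at 0 0.005 0.05 0.5 and 2 mM.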

Chain of UniProt Q8TBC3 (Q8TBC3 whole entry): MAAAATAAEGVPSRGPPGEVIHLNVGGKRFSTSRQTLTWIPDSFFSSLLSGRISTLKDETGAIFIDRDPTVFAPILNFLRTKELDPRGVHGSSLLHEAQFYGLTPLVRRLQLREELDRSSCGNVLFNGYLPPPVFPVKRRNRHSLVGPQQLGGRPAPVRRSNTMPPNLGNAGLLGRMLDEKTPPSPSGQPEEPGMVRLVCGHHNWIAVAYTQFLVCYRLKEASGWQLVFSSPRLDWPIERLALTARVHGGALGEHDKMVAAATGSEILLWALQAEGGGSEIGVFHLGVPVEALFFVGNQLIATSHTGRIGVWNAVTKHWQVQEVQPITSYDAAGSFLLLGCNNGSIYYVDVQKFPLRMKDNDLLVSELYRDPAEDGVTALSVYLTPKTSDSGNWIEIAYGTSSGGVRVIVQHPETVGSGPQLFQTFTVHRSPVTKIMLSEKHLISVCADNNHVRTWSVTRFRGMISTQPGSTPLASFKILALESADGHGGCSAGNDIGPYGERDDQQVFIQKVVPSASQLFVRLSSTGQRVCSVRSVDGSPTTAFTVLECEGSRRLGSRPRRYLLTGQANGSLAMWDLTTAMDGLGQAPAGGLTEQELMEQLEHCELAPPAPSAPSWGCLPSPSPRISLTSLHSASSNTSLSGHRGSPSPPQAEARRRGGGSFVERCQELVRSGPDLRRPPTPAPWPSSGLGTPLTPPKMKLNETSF
Chain of UniProt O60880 (O60880 whole entry): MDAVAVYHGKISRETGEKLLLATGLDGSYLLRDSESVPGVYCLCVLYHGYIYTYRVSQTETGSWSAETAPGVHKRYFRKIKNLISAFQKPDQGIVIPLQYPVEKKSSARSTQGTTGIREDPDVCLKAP
Chain of UniProt Q86UE8 (Q86UE8 whole entry, looked up): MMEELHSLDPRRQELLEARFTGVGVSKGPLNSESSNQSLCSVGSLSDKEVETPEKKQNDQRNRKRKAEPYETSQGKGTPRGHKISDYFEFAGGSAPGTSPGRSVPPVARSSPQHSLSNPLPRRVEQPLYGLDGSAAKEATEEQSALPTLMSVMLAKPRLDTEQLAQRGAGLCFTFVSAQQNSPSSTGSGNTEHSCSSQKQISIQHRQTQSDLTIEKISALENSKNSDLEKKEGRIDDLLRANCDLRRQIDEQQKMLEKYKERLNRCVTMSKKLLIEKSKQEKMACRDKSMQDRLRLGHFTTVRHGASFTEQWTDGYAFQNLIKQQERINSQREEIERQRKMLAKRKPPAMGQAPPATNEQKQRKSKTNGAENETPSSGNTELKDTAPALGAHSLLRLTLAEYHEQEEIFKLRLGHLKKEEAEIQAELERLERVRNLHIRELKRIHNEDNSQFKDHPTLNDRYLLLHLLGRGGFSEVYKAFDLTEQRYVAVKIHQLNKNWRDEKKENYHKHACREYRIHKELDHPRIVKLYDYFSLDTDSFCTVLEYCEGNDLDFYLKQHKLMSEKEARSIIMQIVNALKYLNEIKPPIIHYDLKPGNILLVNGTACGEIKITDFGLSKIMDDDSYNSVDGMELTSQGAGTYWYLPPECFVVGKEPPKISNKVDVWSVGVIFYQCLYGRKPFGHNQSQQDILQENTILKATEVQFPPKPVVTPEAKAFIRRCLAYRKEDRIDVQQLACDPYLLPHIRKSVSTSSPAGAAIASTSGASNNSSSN
Chain of UniProt Q8NEF9 (Q8NEF9 whole entry): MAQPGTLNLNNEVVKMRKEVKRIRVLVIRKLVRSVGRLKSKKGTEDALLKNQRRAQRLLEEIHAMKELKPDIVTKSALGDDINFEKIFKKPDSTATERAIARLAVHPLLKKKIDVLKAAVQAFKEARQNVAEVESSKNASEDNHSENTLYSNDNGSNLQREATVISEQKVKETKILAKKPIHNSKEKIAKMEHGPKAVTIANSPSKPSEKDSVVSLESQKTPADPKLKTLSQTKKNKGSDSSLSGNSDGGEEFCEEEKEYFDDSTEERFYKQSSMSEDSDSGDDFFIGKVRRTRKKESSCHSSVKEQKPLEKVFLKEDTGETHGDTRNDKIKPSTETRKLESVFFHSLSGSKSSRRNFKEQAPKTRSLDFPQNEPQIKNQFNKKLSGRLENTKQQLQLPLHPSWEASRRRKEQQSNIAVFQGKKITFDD
Chain of UniProt Q6PGP7 (Q6PGP7 whole entry): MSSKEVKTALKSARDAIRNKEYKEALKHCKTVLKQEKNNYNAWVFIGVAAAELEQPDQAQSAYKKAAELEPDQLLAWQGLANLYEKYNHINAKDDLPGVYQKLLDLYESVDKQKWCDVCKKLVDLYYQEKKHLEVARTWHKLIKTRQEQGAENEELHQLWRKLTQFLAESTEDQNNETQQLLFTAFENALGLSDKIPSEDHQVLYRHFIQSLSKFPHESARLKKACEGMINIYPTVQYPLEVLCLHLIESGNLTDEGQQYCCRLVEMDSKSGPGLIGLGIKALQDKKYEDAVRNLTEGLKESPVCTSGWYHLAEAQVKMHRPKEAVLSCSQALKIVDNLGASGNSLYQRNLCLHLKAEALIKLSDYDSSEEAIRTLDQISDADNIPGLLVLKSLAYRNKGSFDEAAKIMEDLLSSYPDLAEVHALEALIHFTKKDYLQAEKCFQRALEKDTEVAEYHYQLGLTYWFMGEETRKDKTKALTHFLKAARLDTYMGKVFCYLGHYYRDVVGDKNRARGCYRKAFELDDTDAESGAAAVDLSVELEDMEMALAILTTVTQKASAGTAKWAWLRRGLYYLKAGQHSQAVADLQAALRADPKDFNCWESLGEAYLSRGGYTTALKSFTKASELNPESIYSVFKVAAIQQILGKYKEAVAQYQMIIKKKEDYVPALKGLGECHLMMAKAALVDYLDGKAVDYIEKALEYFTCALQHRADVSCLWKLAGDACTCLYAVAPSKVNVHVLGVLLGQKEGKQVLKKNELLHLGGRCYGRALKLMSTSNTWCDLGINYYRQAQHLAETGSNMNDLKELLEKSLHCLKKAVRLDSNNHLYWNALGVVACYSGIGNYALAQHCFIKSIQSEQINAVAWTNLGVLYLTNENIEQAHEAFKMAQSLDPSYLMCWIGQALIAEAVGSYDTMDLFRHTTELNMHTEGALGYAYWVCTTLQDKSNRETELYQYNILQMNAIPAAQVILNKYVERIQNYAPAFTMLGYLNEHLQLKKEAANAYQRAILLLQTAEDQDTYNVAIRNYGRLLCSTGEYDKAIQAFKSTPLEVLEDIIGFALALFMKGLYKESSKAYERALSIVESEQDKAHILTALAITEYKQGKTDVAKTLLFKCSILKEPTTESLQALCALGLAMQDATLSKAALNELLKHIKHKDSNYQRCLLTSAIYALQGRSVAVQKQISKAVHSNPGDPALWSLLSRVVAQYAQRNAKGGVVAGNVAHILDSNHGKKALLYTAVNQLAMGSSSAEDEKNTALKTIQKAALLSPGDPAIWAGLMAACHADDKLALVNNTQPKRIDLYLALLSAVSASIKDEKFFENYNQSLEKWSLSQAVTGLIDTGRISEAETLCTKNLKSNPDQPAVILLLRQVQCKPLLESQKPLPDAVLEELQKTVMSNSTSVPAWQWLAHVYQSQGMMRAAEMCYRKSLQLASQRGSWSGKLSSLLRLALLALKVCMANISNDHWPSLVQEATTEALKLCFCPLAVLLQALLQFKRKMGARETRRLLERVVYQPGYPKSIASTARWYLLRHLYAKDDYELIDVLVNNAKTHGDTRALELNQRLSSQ
Chain of UniProt Q8NB90 (Q8NB90 whole entry): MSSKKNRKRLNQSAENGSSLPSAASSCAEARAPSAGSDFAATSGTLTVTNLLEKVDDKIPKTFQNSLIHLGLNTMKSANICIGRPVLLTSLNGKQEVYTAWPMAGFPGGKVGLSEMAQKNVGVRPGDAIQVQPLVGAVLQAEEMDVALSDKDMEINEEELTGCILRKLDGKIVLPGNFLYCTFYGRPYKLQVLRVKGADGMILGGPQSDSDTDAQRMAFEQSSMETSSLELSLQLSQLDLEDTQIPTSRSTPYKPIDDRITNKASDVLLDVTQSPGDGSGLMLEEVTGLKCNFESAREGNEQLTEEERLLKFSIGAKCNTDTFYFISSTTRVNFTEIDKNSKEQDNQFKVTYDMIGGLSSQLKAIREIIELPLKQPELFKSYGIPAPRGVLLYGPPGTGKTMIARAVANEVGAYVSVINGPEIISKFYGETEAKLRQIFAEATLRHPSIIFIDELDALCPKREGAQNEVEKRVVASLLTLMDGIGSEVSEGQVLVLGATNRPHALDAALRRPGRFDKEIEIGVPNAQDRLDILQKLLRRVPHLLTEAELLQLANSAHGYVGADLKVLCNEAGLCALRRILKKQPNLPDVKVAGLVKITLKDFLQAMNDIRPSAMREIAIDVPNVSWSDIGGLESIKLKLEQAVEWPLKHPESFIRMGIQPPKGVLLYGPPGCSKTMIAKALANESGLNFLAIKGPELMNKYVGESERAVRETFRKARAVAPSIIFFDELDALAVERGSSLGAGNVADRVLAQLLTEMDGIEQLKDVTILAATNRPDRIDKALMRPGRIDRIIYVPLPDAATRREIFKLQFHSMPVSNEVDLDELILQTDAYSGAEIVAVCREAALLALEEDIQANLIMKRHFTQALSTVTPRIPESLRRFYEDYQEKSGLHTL
Chain of UniProt Q9BQE3 (Q9BQE3 whole entry): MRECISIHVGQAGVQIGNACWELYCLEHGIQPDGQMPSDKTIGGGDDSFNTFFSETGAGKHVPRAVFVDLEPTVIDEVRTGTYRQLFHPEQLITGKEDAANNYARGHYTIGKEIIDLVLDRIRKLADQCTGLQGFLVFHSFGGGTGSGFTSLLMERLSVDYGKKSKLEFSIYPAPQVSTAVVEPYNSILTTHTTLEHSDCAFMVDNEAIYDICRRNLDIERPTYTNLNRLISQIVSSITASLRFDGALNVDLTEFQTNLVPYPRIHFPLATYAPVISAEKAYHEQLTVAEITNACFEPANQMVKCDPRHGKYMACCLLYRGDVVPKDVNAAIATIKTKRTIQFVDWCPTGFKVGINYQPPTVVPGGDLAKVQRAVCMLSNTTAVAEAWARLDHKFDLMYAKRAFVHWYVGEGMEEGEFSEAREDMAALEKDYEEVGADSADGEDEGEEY

For the target “SARNP (effect direction: destabilized) (UniProt P82979)”, the pEC50 (in general, −log10 of the EC50, conventionally taken in molar units) is 3.18.

“SARS2 (effect direction: stabilized) (UniProt Q9NP81)”: the pEC50 stood at 3.43.

For “SCCPDH (effect direction: stabilized) (UniProt Q8NBX0)”, the pEC50 came out at 3.12.

“SCPEP1 (effect direction: stabilized) (UniProt Q9HB40)”: the pEC50 was found to be 3.37.

Turning to “SDAD1 (effect direction: destabilized) (UniProt Q9NVU7)”, the pEC50 was under 2.7.

Regarding “SF3A1 (effect direction: stabilized) (UniProt Q15459)”, the pEC50 is 2.79.

Consider “SF3A3 (effect direction: stabilized) (UniProt Q12874)”, for which the pEC50 was under 2.7.

With “SF3B3 (effect direction: stabilized) (UniProt Q15393)”, the pEC50 is under 2.7.

Turning to “SFXN1 (effect direction: stabilized) (UniProt Q9H9B4)”, the pEC50 worked out at 2.77.

As for “SH2D1A (effect direction: stabilized) (UniProt O60880)”, the pEC50 was under 2.7.

With “SHKBP1 (effect direction: stabilized) (UniProt Q8TBC3)”, the pEC50 was found to be 2.83.

Consider “SHPK (effect direction: stabilized) (UniProt Q9UHJ6)”, for which the pEC50 was found to be 2.83.

As to “SKIV2L (effect direction: stabilized) (UniProt Q15477)”, the pEC50 came out at 2.92.

With “SLBP (effect direction: stabilized) (UniProt Q14493)”, the pEC50 worked out at 3.47.

Consider “SLC12A2 (effect direction: stabilized) (UniProt P55011)”, for which the negative-log EC50 (pEC50) worked out at 3.44.

For “SLC12A9 (effect direction: stabilized) (UniProt Q9BXP2)”, the pEC50 was found to be 3.94.

Turning to “SLC27A4 (effect direction: stabilized) (UniProt Q6P1M0)”, the pEC50 came out at 3.05.

As for “SMARCA5 (effect direction: stabilized) (UniProt O60264)”, the pEC50 is 4.03.

With “SMARCAD1 (effect direction: stabilized) (UniProt Q9H4L7)”, the pEC50 came to 3.94.

Take “SMARCC1 (effect direction: stabilized) (UniProt Q92922)”: the pEC50 came out at 3.43.

Turning to “SMC1A (effect direction: stabilized) (UniProt Q14683)”, the pEC50 stood at 3.41.

For “SMC2 (effect direction: stabilized) (UniProt O95347)”, the pEC50 is 3.49.

Consider “SMC3 (effect direction: stabilized) (UniProt Q9UQE7)”, for which the pEC50 came to 3.41.

On to “SMC4 (effect direction: stabilized) (UniProt Q9NTJ3)”, for which the pEC50 was 3.54.

For “SMG6 (effect direction: stabilized) (UniProt Q86US8)”, the pEC50 worked out at 3.49.

Consider “SND1 (effect direction: stabilized) (UniProt Q7KZF4)”, for which the pEC50 amounted to 3.22.

In the case of “SNRNP27 (effect direction: stabilized) (UniProt Q8WVK2)”, the pEC50 is 3.64.

As for “SNRPA1 (effect direction: stabilized) (UniProt P09661)”, the pEC50 is under 2.7.

As for “SNRPB (effect direction: destabilized) (UniProt P14678)”, the pEC50 is under 2.7.

In the case of “SNX1 (effect direction: stabilized) (UniProt Q13596)”, the pEC50 is under 2.7.

As for “SNX2 (effect direction: stabilized) (UniProt O60749)”, the negative-log EC50 (pEC50) was under 2.7.

On to “SNX5 (effect direction: stabilized) (UniProt Q9Y5X3)”, for which the pEC50 was under 2.7.

As to “SNX6 (effect direction: stabilized) (UniProt Q9UNH7)”, the pEC50 was under 2.7.

Consider “SPAST (effect direction: stabilized) (UniProt Q9UBP0)”, for which the pEC50 is 3.34.

For “SPATA5 (effect direction: stabilized) (UniProt Q8NB90)”, the pEC50 is 2.96.

Take “SPG7 (effect direction: stabilized) (UniProt Q9UQ90)”: the pEC50 was determined as 4.48.

Take “SPN (effect direction: destabilized) (UniProt P16150)”: the pEC50 amounted to 3.88.

For the target “SPTBN1 (effect direction: stabilized) (UniProt Q01082)”, the pEC50 was under 2.7.

In the case of “SRC (effect direction: stabilized) (UniProt P12931)”, the pEC50 stood at 3.37.

Take “SRFBP1 (effect direction: destabilized) (UniProt Q8NEF9)”: the pEC50 is 2.86.

Take “SRPK1 (effect direction: stabilized) (UniProt Q96SB4)”: the pEC50 was 3.64.

For “SRPRB (effect direction: stabilized) (UniProt Q9Y5M8)”, the pEC50 amounted to 3.22.

As to “SRRM2 (effect direction: stabilized) (UniProt Q9UQ35)”, the pEC50 was under 2.7.

Take “SSB (effect direction: stabilized) (UniProt P05455)”: the pEC50 is under 2.7.

On to “ST13 (effect direction: stabilized) (UniProt P50502)”, for which the pEC50 turned out to be 3.1.

As for “STAG2 (effect direction: stabilized) (UniProt Q8N3U4)”, the pEC50 amounted to 4.09.

In the case of “STXBP2 (effect direction: stabilized) (UniProt Q15833)”, the pEC50 was under 2.7.

Take “SUB1 (effect direction: destabilized) (UniProt P53999)”: the pEC50 worked out at 3.37.

For “SUPV3L1 (effect direction: stabilized) (UniProt Q8IYB8)”, the pEC50 is 3.12.

For the target “SWAP70 (effect direction: stabilized) (UniProt Q9UH65)”, the pEC50 was under 2.7.

On to “TARDBP (effect direction: stabilized) (UniProt Q13148)”, for which the pEC50 worked out at 3.21.

In the case of “TBCB (effect direction: stabilized) (UniProt Q99426)”, the pEC50 is under 2.7.

Turning to “TBP (effect direction: destabilized) (UniProt P20226)”, the pEC50 worked out at 3.12.

As to “TCP1 (effect direction: stabilized) (UniProt P17987)”, the pEC50 was found to be 4.76.

For “THOC1 (effect direction: stabilized) (UniProt Q96FV9)”, the pEC50 is under 2.7.

As to “THUMPD3 (effect direction: stabilized) (UniProt Q9BV44)”, the pEC50 came to 3.1.

On to “TLK2 (effect direction: stabilized) (UniProt Q86UE8)”, for which the pEC50 is 3.07.

On to “TLN1 (effect direction: stabilized) (UniProt Q9Y490)”, for which the pEC50 was under 2.7.

“TMEM33 (effect direction: stabilized) (UniProt P57088)”: the pEC50 came to 3.04.

As to “TMEM173 (effect direction: stabilized) (UniProt Q86WV6)”, the pEC50 is 3.26.

“TOR1A (effect direction: stabilized) (UniProt O14656)”: the pEC50 stood at 4.09.

With “TPP1 (effect direction: stabilized) (UniProt O14773)”, the pEC50 worked out at 3.26.

As for “TRAP1 (effect direction: stabilized) (UniProt Q12931)”, the pEC50 was determined as 3.33.

As for “TRIM21 (effect direction: stabilized) (UniProt P19474)”, the pEC50 turned out to be 2.77.

Take “TRIM28 (effect direction: stabilized) (UniProt Q13263)”: the pEC50 was under 2.7.

As to “TRMU (effect direction: stabilized) (UniProt O75648)”, the pEC50 amounted to 3.31.

As to “TSEN2 (effect direction: stabilized) (UniProt Q8NCE0)”, the pEC50 stood at 3.12.

For “TSEN34 (effect direction: stabilized) (UniProt Q9BSV6)”, the pEC50 is under 2.7.

Turning to “TSR1 (effect direction: destabilized) (UniProt Q2NL82)”, the pEC50 was determined as 3.51.

For “TSTA3 (effect direction: stabilized) (UniProt Q13630)”, the pEC50 is 2.73.

“TTC33 (effect direction: stabilized) (UniProt Q6PID6)”: the pEC50 stood at 2.91.

On to “TTC37 (effect direction: stabilized) (UniProt Q6PGP7)”, for which the pEC50 stood at 3.19.

As to “TTF2 (effect direction: stabilized) (UniProt Q9UNY4)”, the pEC50 was found to be 3.17.

Turning to “TUBA1C (effect direction: stabilized) (UniProt Q9BQE3)”, the pEC50 came out at 3.5.

Turning to “TUBB3 (effect direction: stabilized) (UniProt Q13509)”, the pEC50 was 3.69.

On to “TUT1 (effect direction: stabilized) (UniProt Q9H6E5)”, for which the pEC50 was 2.93.

Consider “UBA2 (effect direction: stabilized) (UniProt Q9UBT2)”, for which the pEC50 was under 2.7.

In the case of “UBA3 (effect direction: stabilized) (UniProt Q8TBC4)”, the pEC50 is 3.86.

As to “UBA5 (effect direction: stabilized) (UniProt Q9GZZ9)”, the pEC50 was determined as 3.81.

Regarding “UBE2O (effect direction: stabilized) (UniProt Q9C0C9)”, the pEC50 is under 2.7.

Turning to “UBE3A (effect direction: stabilized) (UniProt Q05086)”, the pEC50 was under 2.7.
